Target: élastase pancréatique porcine (Sus scrofa, UniProt P00772)
Assay: Elastase inhibition (method of SHINOGI et al., substrate Boc-Ala-ONp)
Assay type: biochemical
Settings: mass of inhibitor giving 50 % inhibition after 30 minutes; referred to the dry plant drug for plant extracts, real mass for defined principles
Method: Les dosages d'activités inhibitrices de l'élastase, de la trypsine et de l'α-chymotrypsine ont été réalisés selon la méthode de SHINOGI et al. (1), la quantité d'inhibiteur étant adaptée de manière à obtenir une inhibition voisine de 50 % (I50) après 30 minutes, les extraits étant généralement préparés à partir de 0,5 g de poudre (250) de plante sèche dans 20 ml d'éthanol à 50 % V/V, les principes définis en solution à 1 mg/ml d'éthanol à 50 % V/V.

Sequence of élastase pancréatique porcine (P00772 27-266): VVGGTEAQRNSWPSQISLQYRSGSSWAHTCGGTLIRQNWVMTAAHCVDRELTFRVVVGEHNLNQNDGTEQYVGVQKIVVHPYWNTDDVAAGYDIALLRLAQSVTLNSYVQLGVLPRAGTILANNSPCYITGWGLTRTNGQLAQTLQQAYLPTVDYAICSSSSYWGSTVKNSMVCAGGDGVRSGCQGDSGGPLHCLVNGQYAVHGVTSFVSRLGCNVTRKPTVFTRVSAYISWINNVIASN

Compound	I 50 Elas-tase [µg]
O=C(O)c1cc(O)c(O)c(O)c1 [Acide gallique]	100
O=c1c(O[C@@H]2O[C@H](CO)[C@H](O)[C@H](O)[C@H]2O)c(-c2ccc(O)c(O)c2)oc2cc(O)cc(O)c12 [Hypéroside]	275
O=c1c(O)c(-c2ccc(O)cc2O)oc2cc(O)cc(O)c12 [Morine]	60
O=c1c(O)c(-c2ccc(O[C@@H]3O[C@H](CO)[C@@H](O)[C@H](O)[C@H]3O)c(O)c2)oc2cc(O)cc(O)c12 [Quercétine 4'-Glucoside]	250
C[C@@H]1O[C@@H](OC[C@H]2O[C@@H](Oc3c(-c4ccc(O)c(O)c4)oc4cc(O)cc(O)c4c3=O)[C@H](O)[C@@H](O)[C@@H]2O)[C@H](O)[C@H](O)[C@H]1O [Rutoside]	150
Acide tannique	50
Catéchine-épicatéchine	35
Ethoxazo-rutine	250
Hamamélitanin	600
